Literature values, collected in PMC8828969, “Arylamine N-Acetyltransferase 1 Activity is Regulated by the Protein Acetylation Status” (Frontiers in Pharmacology, 2022).

Test system: NAT1
Design: method as in Butcher et al., 2020
Details: ref Butcher et al., 2020; cited from earlier work

SMILES: NC(=O)c1cccnc1 [nicotinamide]
- acetylation of NAT1: enhanced
